The record followed here is article PMC7883873, “Discovery of New Catalytic Topoisomerase II Inhibitors for Anticancer Therapeutics” (Frontiers in Oncology, 2021).

For series [1], the system named is phospho-H2AXγ protein levels in K562 cells. Put plainly: Immunoblotting of phospho-H2AXγ (DNA damage). Format: cell-based. As to conditions: 4 h. As for the experimental part:
(§1) Cell proliferation rates were measured by using the CellTitre 96 AqueousOne kit (Promega) and bromodeoxyuridine (BrdU) assay kit (Millipore) according to the manufacturer’s protocol as we have described ([51]). Cytotoxicity was evaluated by using the commercial kit (CAT# 8078, ThermoFisher). Culture media was collected and used to measure lactate dehydrogenase (LDH) levels by a colorimetric method following the manufacture’s protocol (ThermoFisher). Cell cycling was assessed by using BrdU incorporation into S-phase DNA by using the APC BrdU flow kit (BD Pharmingen; Franklin Lakes, New Jersey) according to the manufacturer’s protocol. 1 mM of BrdU was added to cells and incubated for 6 h. Cells were incubated with anti-BrdU antibody and stained with 7-AAD before processing the cells for flow cytometry ([52]). Immunoblotting assays followed the standard protocol as we have reported ([51]–[53]).
On the technique in general: A western blot detects proteins with antibodies after separation by electrophoresis.

The subject of series [2] is GFP-AR transfected DU145 cells. Put plainly: AR subcellular localization by microscopy. Format: cell-based. The settings on record: 20 µM, 24 h.
The subject of series [3] is HeLa cells. Put plainly: LDH cytotoxicity assay. Format: cell-based. As to conditions: 0–20 µM, 48 h. On the procedure: as §1
Series [4] concerns the target T1, TOP2B (Homo sapiens, UniProt Q02880). Put plainly: K-DNA decatenation assay. Format: biochemical. Set-up: full-length human TOP2A and TOP2B protein (TopoGEN and Inspiralis respectively); purchased Inspiralis HTB205. As to conditions: densitometry of D-DNA bands; read-out: IC50, inhibition of TOP2B K-DNA decatenation. As for the experimental part: (§2) The human TOP2 assay kit (#TG1001, TopoGEN, Buena Vista, CO) and TOP2B (HTB205, Inspiralis, UK) were used for K-DNA decatenation assays. […] The reaction was incubated at 37C for 2 h after which 4 µl stop solution (5× buffer is 5% Sarkosyl, 0.125% bromophenol blue, 25% glycerol) was added. The reaction was resolved by electrophoresis on a 0.8% agarose gel at 60 V and stained with 0.5 µg/ml ethidium bromide for 15 min. DNA bands were visualized using a gel imager (Gel Doc™ EZ System) and quantified using the Image Studio™ Lite Quantification Software.
Target sequence in this assay (Q02880 whole entry): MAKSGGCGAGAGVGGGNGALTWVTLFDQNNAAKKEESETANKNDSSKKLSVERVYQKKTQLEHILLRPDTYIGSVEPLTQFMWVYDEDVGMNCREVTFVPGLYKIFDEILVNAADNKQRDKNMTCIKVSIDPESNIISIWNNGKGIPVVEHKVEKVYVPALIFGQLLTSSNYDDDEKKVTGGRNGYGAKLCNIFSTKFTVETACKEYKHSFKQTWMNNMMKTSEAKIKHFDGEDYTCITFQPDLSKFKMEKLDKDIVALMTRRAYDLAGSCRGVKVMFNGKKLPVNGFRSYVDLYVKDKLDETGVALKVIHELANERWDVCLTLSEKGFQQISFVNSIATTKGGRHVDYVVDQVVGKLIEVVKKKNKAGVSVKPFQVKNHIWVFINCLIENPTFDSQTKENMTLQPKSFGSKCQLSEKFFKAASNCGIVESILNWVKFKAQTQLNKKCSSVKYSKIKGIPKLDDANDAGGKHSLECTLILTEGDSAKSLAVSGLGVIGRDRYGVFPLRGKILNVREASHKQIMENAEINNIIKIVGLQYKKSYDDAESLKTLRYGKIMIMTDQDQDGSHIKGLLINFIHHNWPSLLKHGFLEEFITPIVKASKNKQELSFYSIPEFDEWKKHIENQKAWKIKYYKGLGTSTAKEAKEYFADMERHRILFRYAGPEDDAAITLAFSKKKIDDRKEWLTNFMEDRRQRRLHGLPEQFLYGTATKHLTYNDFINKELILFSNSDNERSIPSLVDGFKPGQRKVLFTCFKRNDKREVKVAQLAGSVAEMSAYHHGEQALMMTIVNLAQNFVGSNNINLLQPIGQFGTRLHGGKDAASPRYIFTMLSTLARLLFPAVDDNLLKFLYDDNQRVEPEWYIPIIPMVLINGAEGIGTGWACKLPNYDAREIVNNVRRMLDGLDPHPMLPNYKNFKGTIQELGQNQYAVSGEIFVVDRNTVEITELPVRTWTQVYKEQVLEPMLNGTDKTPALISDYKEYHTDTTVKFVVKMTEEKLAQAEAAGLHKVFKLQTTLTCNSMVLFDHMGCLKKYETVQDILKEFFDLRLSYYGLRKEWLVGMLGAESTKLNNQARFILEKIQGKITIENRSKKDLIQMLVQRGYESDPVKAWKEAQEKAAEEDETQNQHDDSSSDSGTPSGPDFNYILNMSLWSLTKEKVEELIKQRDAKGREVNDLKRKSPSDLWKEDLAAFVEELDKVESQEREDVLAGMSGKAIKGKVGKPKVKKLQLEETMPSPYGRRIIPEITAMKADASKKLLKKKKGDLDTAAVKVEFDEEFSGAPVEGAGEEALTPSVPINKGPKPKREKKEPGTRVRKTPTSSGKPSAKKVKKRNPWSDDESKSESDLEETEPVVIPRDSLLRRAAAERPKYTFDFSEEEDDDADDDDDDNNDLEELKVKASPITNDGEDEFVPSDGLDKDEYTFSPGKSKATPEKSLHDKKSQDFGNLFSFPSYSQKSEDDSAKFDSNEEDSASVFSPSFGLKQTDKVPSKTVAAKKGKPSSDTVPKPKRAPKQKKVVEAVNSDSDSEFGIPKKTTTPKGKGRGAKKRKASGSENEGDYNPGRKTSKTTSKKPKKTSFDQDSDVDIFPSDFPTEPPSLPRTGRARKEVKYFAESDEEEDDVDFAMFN

For series [5], the system named is K562, U937, NCI-H82, and NCCIT cancer cells. Put plainly: Co-treatment with paclitaxel or camptothecin, MTS assay. Format: cell-based. As to conditions: 5-20 µM T60 co-treatment. As for the experimental part: as §1
Background: Formazan colour is commonly taken as a measure of viable cells.

The target of series [6] is T1, TOP2B. Put plainly: Cellular thermal shift assay. Format: cell-based. Set-up: endogenous in cells; host or cells: K562 (the thermal shift text says HeLa, the legend says K562); K562 for chromatin fractionation. The settings on record: 20 µM; vehicle 40C; Hela cells. On the procedure:
In the thermal shift assays, cells were treated with vehicle or T60 for 1 h and split into equal aliquots to be heated at 37 to 46°. Protein lyses were collected to perform immunoblotting assays with TOP2 antibodies (Abcam 12318, Santa Cruz sc-13059 & sc-365071). Our chromatin fractionation assays followed the protocol as previously described (Méndez & Stillman, 2000; Wysocka, Reilly, & Herr, 2001). Briefly, K562 cells (4 × 10 ([7]) cells/ml) were collected and re-suspended in buffer A (10 mM HEPES [pH 7.9], 10 mM KCl, 1.5 mM MgCl2, 0.34 M sucrose, 10% glycerol, 1 mM DTT, and protease inhibitor cocktail), before Triton X-100 was added to final concentration at 0.1%. Cells were then incubated on ice for 10 min, and nuclei were collected by centrifugation at speed of 1,300g for 4 min at 4°C. The nuclei were then washed once with buffer A and then incubated with buffer B (3 mM EDTA, 0.2 mM EGTA, 1 mM DTT, and protease inhibitor cocktail [ROCHE]) for 30 min in ice. Insoluble chromatin was collected by centrifugation at 1,700g for 4 min at 4°C, and washed once with buffer B. Chromatin associated proteins were extracted by incubation with Buffer C [500 mM Tris-HCl (pH 6.8), 500 mM NaCl, and protease inhibitor cocktail (ROCHE)] followed by brief sonication. The supernatant was collected to perform immunoblotting assays with TOP2 antibodies as we have described ([51]–[53]).
Target sequence in this assay (Q02880 2-1626 limits assumed): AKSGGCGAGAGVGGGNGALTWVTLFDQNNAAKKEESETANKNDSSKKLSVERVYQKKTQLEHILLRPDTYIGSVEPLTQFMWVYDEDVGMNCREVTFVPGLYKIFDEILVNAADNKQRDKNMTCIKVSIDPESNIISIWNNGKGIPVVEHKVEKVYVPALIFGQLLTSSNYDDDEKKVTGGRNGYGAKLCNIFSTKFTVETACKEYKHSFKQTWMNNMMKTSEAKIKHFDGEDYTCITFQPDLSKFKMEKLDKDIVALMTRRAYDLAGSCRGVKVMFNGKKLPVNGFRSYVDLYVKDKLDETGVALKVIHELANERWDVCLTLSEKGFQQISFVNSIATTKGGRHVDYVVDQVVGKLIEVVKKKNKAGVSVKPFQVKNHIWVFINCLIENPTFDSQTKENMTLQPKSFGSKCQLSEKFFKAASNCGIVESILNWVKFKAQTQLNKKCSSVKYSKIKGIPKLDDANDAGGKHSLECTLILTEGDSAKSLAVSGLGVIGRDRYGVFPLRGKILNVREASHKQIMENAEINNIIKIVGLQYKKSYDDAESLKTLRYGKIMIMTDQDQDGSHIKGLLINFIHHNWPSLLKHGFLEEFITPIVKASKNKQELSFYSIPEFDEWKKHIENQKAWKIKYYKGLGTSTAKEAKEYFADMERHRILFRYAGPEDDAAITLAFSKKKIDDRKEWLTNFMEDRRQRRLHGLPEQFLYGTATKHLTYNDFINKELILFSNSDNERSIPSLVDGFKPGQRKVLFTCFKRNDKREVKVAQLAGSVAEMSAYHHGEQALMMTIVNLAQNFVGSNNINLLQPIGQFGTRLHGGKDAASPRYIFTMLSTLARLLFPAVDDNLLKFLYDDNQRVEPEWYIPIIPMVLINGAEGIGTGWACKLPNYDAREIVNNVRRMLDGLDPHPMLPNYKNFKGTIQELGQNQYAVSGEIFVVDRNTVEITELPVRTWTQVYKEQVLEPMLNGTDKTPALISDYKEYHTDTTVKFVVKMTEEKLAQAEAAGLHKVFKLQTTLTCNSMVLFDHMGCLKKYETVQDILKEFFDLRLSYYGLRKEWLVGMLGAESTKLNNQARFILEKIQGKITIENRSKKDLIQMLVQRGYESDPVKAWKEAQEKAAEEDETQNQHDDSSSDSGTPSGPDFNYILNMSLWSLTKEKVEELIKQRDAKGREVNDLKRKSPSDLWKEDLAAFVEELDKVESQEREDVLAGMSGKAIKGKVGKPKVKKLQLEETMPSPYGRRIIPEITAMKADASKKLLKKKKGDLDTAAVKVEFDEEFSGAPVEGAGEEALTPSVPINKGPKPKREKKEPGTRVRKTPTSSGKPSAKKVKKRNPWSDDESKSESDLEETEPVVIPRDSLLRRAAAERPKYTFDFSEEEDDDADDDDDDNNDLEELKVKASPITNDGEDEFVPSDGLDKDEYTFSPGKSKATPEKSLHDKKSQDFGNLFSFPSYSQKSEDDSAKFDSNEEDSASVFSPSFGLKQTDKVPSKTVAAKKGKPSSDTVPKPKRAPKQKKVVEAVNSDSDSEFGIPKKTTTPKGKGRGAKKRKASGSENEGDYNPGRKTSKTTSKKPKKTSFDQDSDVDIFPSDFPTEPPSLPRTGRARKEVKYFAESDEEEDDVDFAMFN

For a further series, the system named is salmon sperm DNA. Put plainly: Ethidium bromide displacement assay. Format: binding. The settings on record: increasing doses; 100 µg/ml DNA, 2 µg/ml ethidium bromide. As for the experimental part:
Ethidium bromide displacement assay was performed as previously described ([49], [50]) using Amsacrine (mAMSA) as a positive control. In a 20 µl reaction, compounds were mixed with 100 µg/ml of salmon sperm DNA and 2 µg/ml of ethidium bromide in a fluorescence buffer containing 10 mM HEPES, pH 7.9, 100 mM KCl, 5 mM MgCl2, 0.1 mM EDTA, pH 8.0. Triplicate reactions were subjected to fluorescence emission of 590 nm and excitation of 535 nm. Signals were detected by using the Multimode Microplate Reader, Infinite® F500.

The subject of series [7] is AR target genes such as PSA and FKBP5. Put plainly: Real-time PCR of AR target genes. Format: cell-based. As to conditions: LNCaP and LNCaP95 cells, 0-20 µM, −/+10nM DHT.
Another series deals with TOP2A (Homo sapiens, UniProt P11388). Put plainly: K-DNA decatenation assay. Format: biochemical. Set-up: full-length human TOP2A and TOP2B protein (TopoGEN and Inspiralis respectively); purchased TopoGEN TG1001 (human TOP2 assay kit). On the procedure: as §2
TOP2A, sequence (P11388 whole entry): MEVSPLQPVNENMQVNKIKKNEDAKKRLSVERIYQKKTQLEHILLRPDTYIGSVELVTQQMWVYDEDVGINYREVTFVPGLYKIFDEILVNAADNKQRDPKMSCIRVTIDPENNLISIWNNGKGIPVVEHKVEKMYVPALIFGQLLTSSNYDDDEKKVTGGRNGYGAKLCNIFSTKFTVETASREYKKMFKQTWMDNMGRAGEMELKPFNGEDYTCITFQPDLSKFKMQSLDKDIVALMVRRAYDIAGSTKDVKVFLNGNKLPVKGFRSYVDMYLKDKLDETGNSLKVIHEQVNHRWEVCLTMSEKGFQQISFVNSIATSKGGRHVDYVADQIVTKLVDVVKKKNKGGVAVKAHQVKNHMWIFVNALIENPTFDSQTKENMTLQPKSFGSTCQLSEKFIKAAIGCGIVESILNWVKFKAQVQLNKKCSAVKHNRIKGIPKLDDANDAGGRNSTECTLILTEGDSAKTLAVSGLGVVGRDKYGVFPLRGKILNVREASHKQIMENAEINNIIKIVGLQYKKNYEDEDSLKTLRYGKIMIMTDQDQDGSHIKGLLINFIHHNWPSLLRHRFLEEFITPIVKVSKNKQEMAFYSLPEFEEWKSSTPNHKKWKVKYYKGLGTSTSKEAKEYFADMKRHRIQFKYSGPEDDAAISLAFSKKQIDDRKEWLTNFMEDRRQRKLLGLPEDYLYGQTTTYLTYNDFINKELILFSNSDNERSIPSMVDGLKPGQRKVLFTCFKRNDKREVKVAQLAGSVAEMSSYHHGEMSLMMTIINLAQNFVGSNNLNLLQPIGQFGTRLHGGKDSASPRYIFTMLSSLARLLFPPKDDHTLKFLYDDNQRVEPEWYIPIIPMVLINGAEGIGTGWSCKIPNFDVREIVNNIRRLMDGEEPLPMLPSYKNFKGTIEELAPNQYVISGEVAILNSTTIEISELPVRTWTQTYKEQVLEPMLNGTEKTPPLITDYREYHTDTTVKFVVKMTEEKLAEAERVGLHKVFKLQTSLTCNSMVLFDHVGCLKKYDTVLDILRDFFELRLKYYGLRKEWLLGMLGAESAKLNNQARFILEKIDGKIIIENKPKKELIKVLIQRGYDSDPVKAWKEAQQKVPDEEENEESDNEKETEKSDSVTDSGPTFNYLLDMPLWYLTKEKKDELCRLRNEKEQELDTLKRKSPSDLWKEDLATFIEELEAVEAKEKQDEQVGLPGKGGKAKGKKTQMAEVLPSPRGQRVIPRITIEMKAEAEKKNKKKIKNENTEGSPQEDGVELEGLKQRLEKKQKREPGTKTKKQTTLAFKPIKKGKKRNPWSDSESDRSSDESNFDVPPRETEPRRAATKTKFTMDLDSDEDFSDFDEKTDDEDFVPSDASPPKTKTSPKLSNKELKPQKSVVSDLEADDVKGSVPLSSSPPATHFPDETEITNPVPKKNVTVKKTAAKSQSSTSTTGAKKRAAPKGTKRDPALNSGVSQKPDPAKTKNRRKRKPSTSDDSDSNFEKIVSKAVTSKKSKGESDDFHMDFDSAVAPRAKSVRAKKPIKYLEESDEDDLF
In series [8] the target is T1, TOP2B. Put plainly: DNA relaxation assay (supercoiled pHOT-1 plasmid). Format: biochemical. Set-up: full-length human TOP2A and TOP2B protein (TopoGEN and Inspiralis respectively); purchased Inspiralis HTB205. As to conditions: densitometry of SC bands; read-out: IC50, inhibition of TOP2B plasmid DNA relaxation. On the procedure: The human TOP2A and TOP2B were used to perform DNA relaxation assays. […] The reaction was incubated at 37C for 2 h and stopped by adding 2 µl of 10% SDS and 1 µl of 250 mM of EDTA, followed by the addition of 50 µg/ml of proteinase K at 45 C for 1 h. The reaction was then resolved by electrophoresis on a 1% agarose gel at 80 V and stained with 0.5 µg/ml ethidium bromide for 15 min. DNA bands were visualized using a gel imager (Gel Doc™ EZ System) and quantified using the Image Studio™ Lite Quantification Software.
Target sequence in this assay (Q02880 whole entry): as the sequence (Q02880 whole entry) above

The subject of series [9] is HeLa cells. Put plainly: BrdU incorporation assay. Format: cell-based. As to conditions: 20 µM, 48 h. As for the experimental part:
as §1
Background: Incorporation of labelled thymidine or its analogues reports DNA synthesis.

As a reminder, the IC50 is the concentration at which inhibition is half-maximal. For `O=C(Nc1ccc(Nc2ccccc2)cc1)c1ccc[nH]c1=S` [T60], in series [1] (20 µM, co-treated with 10–20 µM etoposide), the “Effect on etoposide-induced phospho-H2AXγ protein levels” value is given as “inhibited etoposide-induced phospho-H2AXγ protein levels”. Further, in [1] (10–20 µM), the “Intracellular DNA damage (phospho-H2AXγ protein levels)” value is on record as “did not cause intracellular DNA damage”. Moreover, in series [2], the “Nuclear localization of GFP-AR, DU145” value is on record as “reduced nuclear localization”. In addition, in the series with HeLa cells [3], the “Cytotoxicity (LDH release)” value is “low cytotoxicity”. The IC50 was about 3 µM at TOP2B [4]; about 0.3 µM on TOP2A (densitometry of D-DNA bands, read-out: IC50, inhibition of TOP2A K-DNA decatenation); about 8.9 µM at TOP2B [8]. Besides, the “Effect on effectiveness of paclitaxel and camptothecin in suppressing cancer cell growth” value in [5] was “enhanced the effectiveness of these drugs”. Also, the “Temperature up to which TOP2B protein is stabilized” value at TOP2B [6] is recorded as “up to 43 C”. In the series with salmon sperm DNA, the “Fluorescence of ethidium bromide/DNA complex (DNA intercalation)” value is reported as “does not intercalate with DNA”. Moreover, the “mRNA expression of AR target genes (PSA, FKBP5)” value in series [7] is “inhibited mRNA expression of AR target genes”. In addition, the “Inhibition of TOP2A mediated K-DNA decatenation” value at TOP2A (Figure 3A) is “inhibited”. Further, the “DNA replication (BrdU incorporation)” value in the series on HeLa cells [9] is on record as “reduced DNA replication”.
